Results published in patent US20250011302A1, “INDOLE BIPYRIMIDINE COMPOUND, AND INTERMEDIATE THEREOF, PREPARATION METHOD THEREFOR AND USE THEREOF” (SHANGHAI ALLIST PHARMACEUTICALS CO., LTD., priority 2021, published 2025).

Test system: Ba/F3 EGFR-Del19/T790M/C797S cells
Assay: Proliferation inhibitory activity against Ba/F3 EGFR-Del19/T790M/C797S cells (PrestoBlue method)
Type: cell-based, murine
Conditions: Mus musculus, Ba/F3 cells stably expressing EGFR Del19/T790M/C797S, 72 hours
Description: The proliferation inhibitory activity of the compounds in vitro against the Ba/F3 EGFR-Del19/T790M/C797S cells from the murine pro B cell line Ba/F3 that stably express EGFR proteins with Del19/T790M/C797S triple mutations, is determined by the PrestoBlue method.
Cell source: Ba/F3 EGFR-Del19/T790M/C797S cells are purchased from Crown Bioscience (Beijing) Co., Ltd.
Ba/F3 EGFR-Del19/T790M/C797S cells are cultured in RPMI1640 complete medium containing 10% fetal calf serum. Take Ba/F3 EGFR-Del19/T790M/C797S cells in the logarithmic growth phase, inoculate them in a 96-well plate at a cell density of 5000 cells/135 μl complete culture medium/well, and place them at a constant temperature incubator containing 5% CO2 at 37° C. for culturing for 24 hours. […]
Take out the 96-well cell culture plate from the CO2 constant temperature incubator, add 15 μl of Invitrogen™ PrestoBlue™ HS cell viability detection reagent (Cat. No.: P50201) to each well, and continue to incubate for 3 hours in the constant temperature incubator containing 5% CO2 at 37° C. Take out the 96-well cell culture plate and measure the fluorescence at the 560 nm excitation wavelength and 590 nm emission wavelength of a microplate reader. […]
Data were analyzed using GraphPad Prism 8.3 software, and nonlinear S-curve regression was used to fit the data to obtain a dose-effect curve, from which the IC50 value was calculated.

Row | Structure (SMILES) | IC50
1 | CN(C)CCN(C)c1nc(OCC(F)(F)F)c(Nc2nccc(-c3cn(C)c4ccccc34)n2)cc1NC(=O)CCN(C)CCN(C)c1nc(OCC(F)(F)F)c(Nc2nccc(-c3cn(C)c4ccccc34)n2)cc1N [Compound 1] | 1860 nM
2 | C=CC(=O)Nc1cc(Nc2nccc(-c3cn(C)c4ccccc34)n2)c(OCC(F)(F)F)nc1N(C)CCN(C)CCC(=O)Nc1cc(Nc2nccc(-c3cn(C)c4ccccc34)n2)c(OCC(F)(F)F)nc1N(C)CCN(C)C [Compound 4] | 293 nM
